Here are results for 19 molecules from patent US8063071B2 (GlaxoSmithKline, LLC, priority 2007, dated 2011).

Molecules are shown by their SMILES. Counter-ions that a name gives are not always drawn.

The subject of test [1] is human monocyte stimulated cytokine production (TNF-α). The test can be described thus: Monocyte assay (LPS-stimulated TNF-α production). It counts as cell-based. The following applies: 24 h, 200 ng/mL LPS, TNF-α by ELISA. A digest of the protocol: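 Human CD14+ monocytes were purified from blood and plated at 1×10^6 cells/mL in RPMI 1640 with 10% FBS. Compound was added 30 min before stimulation with 200 ng/mL LPS (0.1% DMSO final), followed by 24 hrs at 37 C. Supernatant TNF-α was measured by ELISA, and viability by trypan blue exclusion.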
(ELISA stands for enzyme-linked immunosorbent assay.)

For test [2], the target named is T1, Recombinant human IKKβ (residues 1-737) (Homo sapiens, UniProt O14920).
T1 construct: Recombinant human IKKβ (residues 1-737); GST (C); made in house
T1 sequence (O14920 1-737): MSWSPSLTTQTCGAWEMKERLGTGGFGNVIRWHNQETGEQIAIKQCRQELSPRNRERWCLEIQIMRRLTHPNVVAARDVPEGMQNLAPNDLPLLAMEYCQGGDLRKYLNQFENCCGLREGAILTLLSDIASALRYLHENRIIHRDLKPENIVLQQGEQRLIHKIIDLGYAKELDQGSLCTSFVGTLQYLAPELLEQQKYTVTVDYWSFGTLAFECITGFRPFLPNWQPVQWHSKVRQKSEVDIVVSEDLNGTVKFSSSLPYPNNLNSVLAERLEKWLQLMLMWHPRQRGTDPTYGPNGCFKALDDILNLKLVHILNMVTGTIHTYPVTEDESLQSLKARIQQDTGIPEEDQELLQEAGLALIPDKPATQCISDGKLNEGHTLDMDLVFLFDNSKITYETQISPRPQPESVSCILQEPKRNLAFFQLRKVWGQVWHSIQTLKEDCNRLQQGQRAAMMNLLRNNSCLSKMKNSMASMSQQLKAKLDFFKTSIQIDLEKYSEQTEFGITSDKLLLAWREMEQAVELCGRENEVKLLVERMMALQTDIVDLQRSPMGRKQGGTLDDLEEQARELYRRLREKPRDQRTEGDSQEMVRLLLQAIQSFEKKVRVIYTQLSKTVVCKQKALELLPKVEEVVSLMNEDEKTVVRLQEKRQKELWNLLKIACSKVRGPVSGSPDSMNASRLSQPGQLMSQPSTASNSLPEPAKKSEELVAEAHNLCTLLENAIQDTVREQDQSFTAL
The test can be described thus: IKK2 assay (TR-FRET). The following applies: ATP 1 μM final, read-out: pIC50 against IKK2 (converted). It counts as biochemical. The method, boiled down: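 Baculovirus-expressed C-terminal GST-tagged IKKβ (0.5-5 nM final) in HEPES pH 7.4, MgCl2, CHAPS, DTT, BSA with 1.7% DMSO; 25 nM GST-IB substrate and 1 μM ATP, 15 min at room temperature. EDTA stop; phospho-Ser32/36 detected by Eu-antibody/APC-anti-GST TR-FRET, 665/620 nm ratio.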
(In general: Time-resolved FRET reads energy transfer from a long-lived donor to a nearby acceptor.)

`CCS(=O)(=O)N1CCC(c2c[nH]c3c(C(N)=O)cc(-c4cc(C#N)cc(CN(C)C)c4)cc23)CC1` [Example 358, 5-{3-cyano-5-[(dimethylamino)methyl]phenyl}-3-[1-(ethylsulfonyl)-4-piperidinyl]-1H-indole-7-carboxamide trifluoroacetate]: the IC50 in test [1] was not above 1.5 µM; in test [2], not above 10 µM.

As to `CCS(=O)(=O)N1CCC(c2c[nH]c3c(C(N)=O)cc(-c4cccc(CNC(=O)c5ccc(F)cc5)c4)cc23)CC1` [Example 360, 3-[1-(ethylsulfonyl)-4-piperidinyl]-5-[3-({[(4-fluorophenyl)carbonyl]amino}methyl)phenyl]-1H-indole-7-carboxamide trifluoroacetate], the IC50 in test [1] is more than 1 µM; in test [2], not above 10 µM.

In the case of `CCS(=O)(=O)N1CCC(c2c[nH]c3c(C(N)=O)cc(-c4cccc(CNC(=O)c5ccco5)c4)cc23)CC1` [Example 361, 3-[1-(ethylsulfonyl)-4-piperidinyl]-5-(3-{[(2-furanylcarbonyl)amino]methyl}phenyl)-1H-indole-7-carboxamide trifluoroacetate], the IC50 was not above 1.5 µM in test [1] and not above 10 µM in test [2].

For the molecule `CCS(=O)(=O)N1CCC(c2c[nH]c3c(C(N)=O)cc(-c4cccc(CNC(=O)C5CCCC5)c4)cc23)CC1` [Example 362, 5-(3-{[(cyclopentylcarbonyl)amino]methyl}phenyl)-3-[1-(ethylsulfonyl)-4-piperidinyl]-1H-indole-7-carboxamide trifluoroacetate], the IC50 in test [1] was more than 1 µM; in test [2], not above 10 µM.

Turning to `CCS(=O)(=O)N1CCC(c2c[nH]c3c(C(N)=O)cc(-c4cccc(CNC(=O)c5cc6ccccc6s5)c4)cc23)CC1` [Example 363, 5-(3-{[(1-benzothien-2-ylcarbonyl)amino]methyl}phenyl)-3-[1-(ethylsulfonyl)-4-piperidinyl]-1H-indole-7-carboxamide], the IC50 is more than 1 µM in test [1] and not above 10 µM in test [2].

For `CCS(=O)(=O)N1CCC(c2c[nH]c3c(C(N)=O)cc(-c4cccc(CNC(=O)C5CCN(C(C)=O)CC5)c4)cc23)CC1` [Example 364, 5-[3-({[(1-acetyl-4-piperidinyl)carbonyl]amino}methyl)phenyl]-3-[1-(ethylsulfonyl)-4-piperidinyl]-1H-indole-7-carboxamide], the IC50 was not above 1.5 µM in test [1] and not above 10 µM in test [2].

On to `CCS(=O)(=O)N1CCC(c2c[nH]c3c(C(N)=O)cc(-c4cccc(CNC(=O)c5cccn5C)c4)cc23)CC1` [Example 365, 3-[1-(ethylsulfonyl)-4-piperidinyl]-5-[3-({[(1-methyl-1H-pyrrol-2-yl)carbonyl]amino}methyl)phenyl]-1H-indole-7-carboxamide], for which the IC50 in test [1] was more than 1 µM; in test [2], not above 10 µM.

On to `CCS(=O)(=O)N1CCC(c2c[nH]c3c(C(N)=O)cc(-c4cccc(CNC(=O)Cc5cccs5)c4)cc23)CC1` [Example 366, 3-[1-(ethylsulfonyl)-4-piperidinyl]-5-(3-{[(2-thienylacetyl)amino]methyl}phenyl)-1H-indole-7-carboxamide], for which the figures for the IC50 in test [1] and in test [2] were not above 1.5 µM and not above 10 µM, respectively.

`CCS(=O)(=O)N1CCC(c2c[nH]c3c(C(N)=O)cc(-c4cccc(CNC(=O)C5CCC5)c4)cc23)CC1` [Example 367, 5-(3-{[(cyclobutylcarbonyl)amino]methyl}phenyl)-3-[1-(ethylsulfonyl)-4-piperidinyl]-1H-indole-7-carboxamide]: the figures for the IC50 in test [1] and in test [2] were not above 1.5 µM and not above 10 µM, respectively.

With `CCS(=O)(=O)N1CCC(c2c[nH]c3c(C(N)=O)cc(-c4cccc(CNC(=O)C5CC5)c4)cc23)CC1` [Example 368, 5-(3-{[(cyclopropylcarbonyl)amino]methyl}phenyl)-3-[1-(ethylsulfonyl)-4-piperidinyl]-1H-indole-7-carboxamide], the IC50 is not above 1.5 µM in test [1] and not above 10 µM in test [2].

For the molecule `CCS(=O)(=O)N1CCC(c2c[nH]c3c(C(N)=O)cc(-c4cccc(CNS(=O)(=O)C5CC5)c4)cc23)CC1` [Example 369, 5-(3-{[(cyclopropylsulfonyl)amino]methyl}phenyl)-3-[1-(ethylsulfonyl)-4-piperidinyl]-1H-indole-7-carboxamide], the IC50 in test [1] was not above 1.5 µM; in test [2] it was not above 10 µM.

`CCS(=O)(=O)N1CCC(c2c[nH]c3c(C(N)=O)cc(-c4cccc(CNS(=O)(=O)c5cc(Cl)ccc5Cl)c4)cc23)CC1` [Example 370, 5-[3-({[(2,5-dichlorophenyl)sulfonyl]amino}methyl)phenyl]-3-[1-(ethylsulfonyl)-4-piperidinyl]-1H-indole-7-carboxamide]: the IC50 is not above 1.5 µM in test [1] and not above 10 µM in test [2].

Regarding `CCS(=O)(=O)N1CCC(c2c[nH]c3c(C(N)=O)cc(-c4cccc(CNS(=O)(=O)c5ccc(Br)cc5)c4)cc23)CC1` [Example 371, 5-[3-({[(4-bromophenyl)sulfonyl]amino}methyl)phenyl]-3-[1-(ethylsulfonyl)-4-piperidinyl]-1H-indole-7-carboxamide], the IC50 in test [1] was not above 1.5 µM; in test [2] it was not above 10 µM.

As for `CCS(=O)(=O)N1CCC(c2c[nH]c3c(C(N)=O)cc(-c4cccc(CNS(=O)(=O)c5ccc(Cl)cc5)c4)cc23)CC1` [Example 372, 5-[3-({[(4-chlorophenyl)sulfonyl]amino}methyl)phenyl]-3-[1-(ethylsulfonyl)-4-piperidinyl]-1H-indole-7-carboxamide], the results for the IC50 in test [1] and in test [2] were not above 1.5 µM and not above 10 µM, respectively.

As for `CCS(=O)(=O)N1CCC(c2c[nH]c3c(C(N)=O)cc(-c4cccc(CNS(=O)(=O)c5cccc(F)c5)c4)cc23)CC1` [Example 373, 3-[1-(ethylsulfonyl)-4-piperidinyl]-5-[3-({[(3-fluorophenyl)sulfonyl]amino}methyl)phenyl]-1H-indole-7-carboxamide], the IC50 in test [1] is not above 1.5 µM; in test [2] it was not above 10 µM.

Turning to `CCS(=O)(=O)N1CCC(c2c[nH]c3c(C(N)=O)cc(-c4cccc(CNS(=O)(=O)c5ccccc5Cl)c4)cc23)CC1` [Example 374, 5-[3-({[(2-chlorophenyl)sulfonyl]amino}methyl)phenyl]-3-[1-(ethylsulfonyl)-4-piperidinyl]-1H-indole-7-carboxamide], the IC50 was more than 1 µM in test [1] and not above 10 µM in test [2].

As to `CCS(=O)(=O)N1CCC(c2c[nH]c3c(C(N)=O)cc(-c4cccc(CNS(=O)(=O)c5cc(Cl)sc5Cl)c4)cc23)CC1` [Example 375, 5-[3-({[(2,5-dichloro-3-thienyl)sulfonyl]amino}methyl)phenyl]-3-[1-(ethylsulfonyl)-4-piperidinyl]-1H-indole-7-carboxamide], the IC50 was more than 1 µM in test [1] and not above 10 µM in test [2].

Turning to `CCS(=O)(=O)N1CCC(c2c[nH]c3c(C(N)=O)cc(-c4cccc(CNS(=O)(=O)c5c(C)cccc5Cl)c4)cc23)CC1` [Example 376, 5-[3-({[(2-chloro-6-methylphenyl)sulfonyl]amino}methyl)phenyl]-3-[1-(ethylsulfonyl)-4-piperidinyl]-1H-indole-7-carboxamide], the IC50 was not above 1.5 µM in test [1] and not above 10 µM in test [2].

For the molecule `CCS(=O)(=O)N1CCC(c2c[nH]c3c(C(N)=O)cc(-c4cccc(CNS(=O)(=O)c5cc(F)ccc5C)c4)cc23)CC1` [Example 377, 3-[1-(ethylsulfonyl)-4-piperidinyl]-5-[3-({[(5-fluoro-2-methylphenyl)sulfonyl]amino}methyl)phenyl]-1H-indole-7-carboxamide], the IC50 in test [1] was more than 1 µM; in test [2], not above 10 µM.
